Paper PMC3921447, “Homologous and heterologous desensitization of guanylyl cyclase-B signaling in GH3 somatolactotropes” (Cell and Tissue Research, 2013)

How the values were obtained:
Npr2 = Npr2 mRNA expression by qPCR in GH3 cells; assay type: cell-based, rat; conditions: 100 nM CNP, 24 h; n = 3; Fig. 4a
Experimental: Total RNA was extracted from 1 × 10^6 GH3 cells or from male Sprague Dawley rat pituitaries by using Tri-reagent (Sigma-Aldrich, Poole, UK) and subjected to DNase treatment (Qiagen, Manchester, UK) before generation of first-strand cDNA (Applied Biosystems, Warrington, UK). Polymerase chain reaction (PCR) was performed for a range of targets for 30 cycles by using the primers and conditions published previously (Thompson et al. [2009]). In some instances, GH3 cells were treated with 0 or 100 nM CNP for 24 h prior to RNA extraction. These samples were processed for […] PCR (qPCR) analyses with commercially available rat Npr2 and 18S primer sets (Qiagen, Manchester, UK) under standard SYBR conditions as described previously (Bayol et al. [2010]).
We next examined whether Npr2 or GC-B down-regulation (as determined by a reduction in Npr2 mRNA expression and or GC-B protein expression) mediated the inhibitory effects of sustained CNP exposure. The effect of CNP exposure on the expression of the endogenous Npr2 gene was examined by using qPCR. […]
Fig. 4 CNP fails to alter expression of Npr2 mRNA or GC-B protein in GH3 somatolactotrope cells. a GH3 cells were stimulated with 0 or 100 nM CNP for 24 h prior to extraction of total RNA, cDNA synthesis, and quantitative PCR for endogenous Npr2 expression. […]

GC-B = molecular target: T1, GC-B (Rattus norvegicus, UniProt P16067); assay: Agonist-induced GC-B internalization by confocal immunofluorescence in GH3 cells; assay type: cell-based; conditions: 100 nM CNP, 0-4 h; n = 3; Fig. 5a-c
T1 construct: rapid homologous desensitization of endogenous GC-B receptors in GH3 cells; endogenous in cells; host or cells: GH3 rat somatolactotrope cells
T1 sequence (P16067 17-1047): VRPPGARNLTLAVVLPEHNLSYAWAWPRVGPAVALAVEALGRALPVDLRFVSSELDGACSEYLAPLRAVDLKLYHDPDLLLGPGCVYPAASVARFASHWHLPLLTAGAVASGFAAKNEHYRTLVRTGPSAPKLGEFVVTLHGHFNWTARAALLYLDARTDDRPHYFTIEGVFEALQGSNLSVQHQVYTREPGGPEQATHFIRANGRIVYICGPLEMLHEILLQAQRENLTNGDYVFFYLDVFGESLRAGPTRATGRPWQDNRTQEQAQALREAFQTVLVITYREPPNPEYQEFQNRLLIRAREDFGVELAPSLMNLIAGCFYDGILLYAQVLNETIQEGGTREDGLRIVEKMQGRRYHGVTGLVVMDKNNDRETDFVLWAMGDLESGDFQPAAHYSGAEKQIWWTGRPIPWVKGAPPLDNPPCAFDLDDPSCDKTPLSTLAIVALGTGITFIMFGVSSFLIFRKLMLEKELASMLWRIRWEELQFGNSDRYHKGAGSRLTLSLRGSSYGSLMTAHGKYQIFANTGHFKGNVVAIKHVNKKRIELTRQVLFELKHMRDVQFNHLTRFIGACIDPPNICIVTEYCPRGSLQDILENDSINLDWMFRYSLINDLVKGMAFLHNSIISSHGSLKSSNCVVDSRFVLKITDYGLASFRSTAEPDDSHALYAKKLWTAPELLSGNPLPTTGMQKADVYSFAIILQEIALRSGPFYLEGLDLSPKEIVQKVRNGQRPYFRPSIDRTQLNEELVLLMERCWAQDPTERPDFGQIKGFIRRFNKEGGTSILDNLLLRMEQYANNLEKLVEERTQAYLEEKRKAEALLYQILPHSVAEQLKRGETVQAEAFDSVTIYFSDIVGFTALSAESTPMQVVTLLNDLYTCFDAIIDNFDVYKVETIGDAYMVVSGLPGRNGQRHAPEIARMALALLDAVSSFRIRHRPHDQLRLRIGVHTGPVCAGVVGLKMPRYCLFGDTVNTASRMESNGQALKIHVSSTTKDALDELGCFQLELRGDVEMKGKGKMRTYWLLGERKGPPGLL
Experimental: GH3 cells were mounted on poly-L-lysine-coated coverslips and treated with either 0 or 100nM ANP or CNP in PSS during the indicated time points. Following treatment, cells were fixed with 4 % (w/v) formaldehyde for 10 min at room temperature and permeabilized with buffer (1 % [v/v] Tween-20 in 50 ml phosphate-buffered saline [PBS]) before incubation for 10 min at room temperature. Cells were then blocked with […] sodium azide dissolved in 92 % PBS, 3 % FCS and 5 % Tween-20 (v/v) for 20 min at room temperature, washed, then exposed to 1:200 diluted primary antibody solution (GC-A or GC-B, plus 0.1 % FCS and 0.1 % Tween-20) for 16 h at 4 °C. […] Following three PBS washes and a final 5-min PBS immersion at room temperature, the slides were mounted in Vectorshield (Vector Laboratories, Peterborough, UK) on standard VWR (VWR International, Leicestershire, UK) slides ready for analysis. A Leica SPS confocal scanning laser microscope was used to capture the staining, which was analyzed with Leica SPS software (Leica Microsystems, Milton Keynes, UK). […]
Fig. 5 Lack of ligand-dependent internalization of GC-B or GC-A in GH3 somatolactotrope cells. […] GC-A and GC-B immunoreactivity was detected by using Alexa488-conjugated secondary antibodies (green), whereas Alexa635-conjugated phalloidin was used to detect the actin cytoskeleton (red). […]

CC[C@H](C)[C@@H]1NC(=O)[C@H](CCCNC(=N)N)NC(=O)[C@H](CC(=O)O)NC(=O)[C@H](CC(C)C)NC(=O)[C@H](CCCCN)NC(=O)[C@H](CC(C)C)NC(=O)CNC(=O)[C@H](Cc2ccccc2)NC(=O)[C@@H](NC(=O)CNC(=O)[C@H](CCCCN)NC(=O)[C@H](CO)NC(=O)[C@H](CC(C)C)NC(=O)CN)CSSC[C@@H](C(=O)O)NC(=O)CNC(=O)[C@H](CC(C)C)NC(=O)CNC(=O)[C@H](CO)NC(=O)[C@H](CCSC)NC(=O)[C@H](CO)NC(=O)CNC1=O [CNP, C-type natriuretic peptide]
Npr2 mRNA expression (Npr2): failed to alter Npr2 expression in GH3 cells | GC-B internalization (GC-B): did not demonstrate any observable GC-B or GC-A internalization
